Reference: patent US8871760B2, “[1,2,4]triazolo[3,4-C][1,4]oxazines as P2X7 modulators” (Roche Palo Alto LLC, priority 2009, dated 2014)

How the values were obtained:
[1] = target: T1, human P2X7 (UniProt Q99572); assay: Intracellular Calcium Flux (FLIPR) Assay; format: cell-based
T1 sequence (Q99572 1-595): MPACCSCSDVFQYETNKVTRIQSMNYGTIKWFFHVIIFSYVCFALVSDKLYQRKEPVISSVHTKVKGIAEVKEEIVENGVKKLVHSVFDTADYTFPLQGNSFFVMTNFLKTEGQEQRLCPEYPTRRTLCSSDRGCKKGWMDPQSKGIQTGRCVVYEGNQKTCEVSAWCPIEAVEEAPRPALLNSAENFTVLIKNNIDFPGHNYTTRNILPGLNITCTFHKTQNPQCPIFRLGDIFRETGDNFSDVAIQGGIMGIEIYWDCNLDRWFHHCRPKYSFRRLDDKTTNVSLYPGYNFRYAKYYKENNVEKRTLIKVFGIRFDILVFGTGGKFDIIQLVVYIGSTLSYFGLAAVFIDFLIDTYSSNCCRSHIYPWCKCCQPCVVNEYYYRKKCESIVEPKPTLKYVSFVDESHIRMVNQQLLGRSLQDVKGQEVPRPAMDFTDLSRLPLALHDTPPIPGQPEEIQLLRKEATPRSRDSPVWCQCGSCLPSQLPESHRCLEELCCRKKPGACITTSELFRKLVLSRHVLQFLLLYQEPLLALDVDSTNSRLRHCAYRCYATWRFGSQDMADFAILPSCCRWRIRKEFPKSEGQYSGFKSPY
Protocol: Intracellular Calcium Flux (FLIPR) Assay
Compound and Reagent Preparation
Stock solutions of compounds were prepared from powders as a 10 mM DMSO stock solution. These solutions were stored at RT during the two week period of these experiments to prevent freeze-thaw of the DMSO stocks. The DMSO stocks were added to the appropriate assay buffer at a concentration of 10 μM, and then diluted serially to the final concentrations that were tested. No observable precipitate was formed at any time during this process. The aqueous solutions of compounds as well as ATP (Sigma A7699) and BzATP (Sigma B6396) were prepared fresh for each day of experiment.
1321N1 cells stably expressing the full length human P2X7 gene (1321N1-hP2X7) and HEK293 cells stably expressing the full length rat P2X7 gene (HEK293-rP2X7) were obtained from the Roche Cell Culture Facility. 1321N1-hP2X7 cells were grown in Dulbecco's Modified Eagle's Medium (DMEM) high glucose supplemented with 10% FBS and […] G418. HEK293-rP2X7 cells were grown in DMEM/F-12 supplemented with 10% FBS, 1 mM CaCl2, 2 mM MgCl2, 2 mM L-Glutamine and […] G418. Cells were split such that they never became >70% confluent.
Intracellular Calcium Flux (FLIPR)
On the day prior to the experiment, 1321N1-hP2X7 or HEK293-rP2X7 cells were released into suspension with calcium-free PBS+Versene and washed by centrifugation with calcium-free PBS to remove the Versene. Cells were resuspended in growth medium at a density of 2.5×10^5 cells/mL and seeded into black walled, clear bottom 96 well plates (50,000 cells/well) approximately 18 hr prior to intracellular calcium flux experiments.
On the day of the experiment, plates were washed with FLIPR buffer (calcium- and magnesium-free Hank's Balanced Salt Solution (HBSS) supplemented with 10 mM Hepes, 2.5 mM probenecid and 2 mM calcium chloride) using a BIO-TEK 96 channel plate washer and incubated with […] fluo-3 dye at 37° C. for one hr. The dye was then removed by plate washing and the cells were allowed to equilibrate for 20 min at room temperature with antagonist or vehicle (FLIPR buffer). Agonist (100 μM BzATP final concentration for hP2X7; 5 μM BzATP final concentration or rP2X7) was added online with the FLIPR and fluorescence measurements made at 1 sec intervals for 60 sec followed by 3 sec intervals for a further 4 min (5 min total). A final addition of 5 μM ionomycin was made and the maximal BzATP-evoked fluorescence normalized to the maximal ionomycin-evoked fluorescence.

| SMILES | melting point [°C] | pIC50 [1] |
| --- | --- | --- |
| Cc1cc2cnn(CCO)c2cc1Nc1nnc2n1[C@H](c1ccc(F)cc1)COC2 [Compound 39, 2-{6-[(R)-5-(4-Fluoro-phenyl)-5,6-dihydro-8H-[1,2,4]triazolo[3,4-c][1,4]oxazin-3-ylamino]-5-methyl-indazol-1-yl}-ethanol] | 215 to 217 | 7.605 |
| COc1cc(C)c(Nc2nnc3n2C(c2ccc(F)cc2)CSC3)cc1OC (stereo not drawn) [Compound 18, (4,5-Dimethoxy-2-methyl-phenyl)-[5-(4-fluoro-phenyl)-5,6-dihydro-8H-[1,2,4]triazolo[3,4-c][1,4]thiazin-3-yl]-amine] | 165 to 166 | 7.58 |
| Cc1cc(Cl)c(OCCO)cc1Nc1nnc2n1[C@H](c1ccc(F)cc1)COC2 [Compound 21, 2-{2-Chloro-5-[(R)-5-(4-fluoro-phenyl)-5,6-dihydro-8H-[1,2,4]triazolo[3,4-c][1,4]oxazin-3-ylamino]-4-methyl-phenoxy}-ethanol] | 161 to 162 | 7.59 |
